Series [1] concerns Puccinia triticina; Synonym: Puccinia recondite f. sp. tritici. The series can be described thus: Wheat brown rust (PUCCRT) disease control on wheat seedlings. The format is in vivo. As to conditions: Puccinia triticina, High volume application, 100 ppm. The gist of the method:
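Yuma wheat grown to first fully emerged leaf was inoculated with Puccinia triticina spore suspension either before or after fungicide treatment, held overnight at 22° C. and 100% RH in darkness, then kept at 24° C. Fungicide applied by booth sprayer to run-off (acetone/water, 110 ppm Triton X-100) or as EC by track spray.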

For series [2], the system named is Mycosphaerella graminicola; Anamorph: Septoria tritici. The series can be described thus: Leaf blotch of wheat (SEPTTR) disease control on wheat seedlings. The format is in vivo. As to conditions: Zymoseptoria tritici, High volume application, 100 ppm. The gist of the method:
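Protective or curative format: Septoria tritici inoculation either preceded or followed fungicide application to first-leaf Yuma wheat. Severity scored 0–100%; control expressed versus untreated.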

Another series deals with Phakopsora pachyrhizi. Description: Asian soybean rust (PHAKPA) disease control. As to conditions: topical, high volume. The format is in vivo. The protocol:
Technical grades of materials were dissolved in acetone, which were then mixed with nine volumes of water containing 0.011% Tween 20. The fungicide solutions were applied onto soybean seedlings using an automated booth sprayer to run-off. All sprayed plants were allowed to air dry prior to further handling.
Soybean plants (variety Williams 82) were grown in soil-less Metro mix, with one plant per pot. Two weeks old seedlings were used for testing. Plants were inoculated either 3 days prior to or 1 day after fungicide treatments. Plants were incubated for 24 h in a dark dew room at 22° C. and 100% RH then transferred to a growth room at 23° C. for disease to develop. Disease severity was assessed on the sprayed leaves.

Where [3] appears, read: 24 h, 1 Day Protectant, read-out: PUCCRT 1DP disease control.
Setting [4] is: 72 h, 3 Day Curative, read-out: PUCCRT 3DC disease control.
[5] abbreviates: 24 h, 1 Day Protectant, read-out: SEPTTR 1DP disease control.
Setting [6] is: 72 h, 3 Day Curative, read-out: SEPTTR 3DC disease control.
[7] abbreviates: 24 h, 1 Day Protectant, read-out: Disease Control PHAKPA 1DP.

Like-named read-outs stand apart in the source and are kept apart here.

Turning to `COc1ccnc(C(=O)N[C@H]2CCC[C@H](Oc3ccc(F)cc3)[C@@H](OCC(C)C)[C@H](C)OC2=O)c1OCOC(C)=O` [F63], the melting point lay within 139 to 141 °C. The pest or weed control at 100 ppm in series [1] (setting [3]) was 80 to 100%. Moreover, the pest or weed control at 100 ppm in series [1] (setting [4]) was in the range of 80 to 100%. Moreover, the pest or weed control at 100 ppm in series [2] (setting [5]) fell in the range of 80 to 100%. Further, the pest or weed control at 100 ppm in series [2] (setting [6]) lay within 80 to 100%.

`COc1ccc(O[C@H]2CCC[C@H](NC(=O)c3nccc(OC)c3OCOC(C)=O)C(=O)O[C@@H](C)[C@@H]2OCC(C)C)cc1` [F68] came in with a melting point of 118 to 120 °C. Moreover, the pest or weed control at 100 ppm in series [1] (setting [3]) was in the range of 80 to 100%. Besides, the pest or weed control at 100 ppm in series [1] (setting [4]) was 80 to 100%. Also, the pest or weed control at 100 ppm in series [2] (setting [5]) fell in the range of 80 to 100%. The pest or weed control at 100 ppm in series [2] (setting [6]) is 80 to 100%. The pest or weed control at 25 ppm in the series with Phakopsora pachyrhizi (setting [7]) was 80 to 100%.

As for `COc1ccnc(C(=O)N[C@H]2CCC[C@H](OC3CCCC3)[C@@H](OC3CCCC3)[C@H](C)OC2=O)c1O` [F73], the melting point was 61 to 63 °C. The pest or weed control at 100 ppm in series [1] (setting [3]) was in the range of 80 to 100%. The pest or weed control at 100 ppm in series [1] (setting [4]) is 80 to 100%. Moreover, in series [2] (setting [5]), the pest or weed control at 100 ppm was 0 to 80%. Besides, the pest or weed control at 100 ppm in series [2] (setting [6]) is 80 to 100%.

Turning to `COc1ccnc(C(=O)N[C@H]2CCC[C@H](Oc3ccccc3)[C@@H](OC3CCCC3)[C@H](C)OC2=O)c1OCOC(C)=O` [F80], the melting point fell in the range of 148 to 149 °C. The pest or weed control at 100 ppm in series [1] (setting [3]) lay within 80 to 100%. Also, the pest or weed control at 100 ppm in series [1] (setting [4]) is 80 to 100%. Besides, the pest or weed control at 100 ppm in series [2] (setting [5]) was 80 to 100%. The pest or weed control at 100 ppm in series [2] (setting [6]) is 80 to 100%. In the series on Phakopsora pachyrhizi (setting [7]), the pest or weed control at 25 ppm was 80 to 100%. Besides, the pest or weed control at 25 ppm with Phakopsora pachyrhizi (72 h, 3 Day Curative, read-out: Disease Control PHAKPA 3DC) fell in the range of 80 to 100%.

For `COc1ccnc(C(=O)N[C@H]2CCC[C@H](OC3CCCC3)[C@@H](OCC(C)C)[C@H](C)OC2=O)c1O` [F119], the melting point is 99 to 100 °C. In series [1] (setting [3]), the pest or weed control at 100 ppm is 80 to 100%. Besides, the pest or weed control at 100 ppm in series [1] (setting [4]) lay in the range of 80 to 100%. Moreover, the pest or weed control at 100 ppm in series [2] (setting [5]) is 80 to 100%. In addition, the pest or weed control at 100 ppm in series [2] (setting [6]) is 80 to 100%.

`COc1ccnc(C(=O)N[C@H]2CCC[C@H](OC3CCCC3)[C@@H](OCCCC(F)(F)F)[C@H](C)OC2=O)c1O` [F120] returned a melting point of 43 to 48 °C. In addition, the pest or weed control at 100 ppm in series [1] (setting [3]) is 80 to 100%. For the same molecule, in series [1] (setting [4]), the pest or weed control at 100 ppm was in the range of 80 to 100%. In series [2] (setting [5]), the pest or weed control at 100 ppm lay within 80 to 100%. For the same molecule, the pest or weed control at 100 ppm in series [2] (setting [6]) was in the range of 80 to 100%.

Regarding `CCCO[C@H]1[C@H](C)OC(=O)[C@@H](NC(=O)c2nccc(OC)c2O)CCC[C@@H]1OCC(C)C` [F212], the melting point was in the range of 109 to 111 °C. Besides, the pest or weed control at 100 ppm in series [1] (setting [3]) was 80 to 100%. Besides, the pest or weed control at 100 ppm in series [1] (setting [4]) fell in the range of 80 to 100%. Further, the pest or weed control at 100 ppm in series [2] (setting [5]) was in the range of 0 to 80%. In addition, the pest or weed control at 100 ppm in series [2] (setting [6]) fell in the range of 0 to 80%.

`COc1ccnc(C(=O)N[C@H]2CCC[C@H](OCC(C)C)[C@@H](OC(=O)C3CC3)[C@H](C)OC2=O)c1O` [F213] came in with a melting point of 63 to 66 °C. Also, in series [1] (setting [3]), the pest or weed control at 100 ppm lay in the range of 80 to 100%. Further, in series [1] (setting [4]), the pest or weed control at 100 ppm lay within 80 to 100%. Also, the pest or weed control at 100 ppm in series [2] (setting [5]) fell in the range of 0 to 80%. Moreover, in series [2] (setting [6]), the pest or weed control at 100 ppm was in the range of 0 to 80%.

The values are drawn from patent publication US9681664B2, “Macrocyclic picolinamides as fungicides” (Dow Agrosciences LLC, priority 2012, dated 2017).
